Columns and labels:
Assay type in all cases: in vivo
[1] = system: AMARE: Amaranthus retroflexus; test: Post-emergence herbicidal efficacy at 80 g/ha, AMARE; conditions: visual rating about 3 weeks after treatment vs untreated controls
In short: (§1)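 Activity is a visual score relative to untreated plants, taken about 3 weeks after treatment, where 100% means plant death and 0% means no difference from control. Weeds in sandy loam were sprayed at the one-leaf stage with an aqueous WP or EC preparation carrying 0.5% additive at 600 l/ha.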

STEME: Stellaria media [2] = test: Post-emergence herbicidal efficacy at 1280 g/ha, STEME; conditions: visual rating about 3 weeks after treatment vs untreated controls
In short: (§2)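 Weeds grown in sandy loam in the greenhouse were sprayed at the one-leaf stage, 2 to 3 weeks after sowing, with WP or EC formulations in water plus 0.5% additive at 600 L/ha. Damage was scored visually about 3 weeks later against untreated controls (0% = like control, 100% = plants dead).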

VERPE: Veronica persica [3] = test: Post-emergence herbicidal efficacy at 1280 g/ha, VERPE; conditions: visual rating about 3 weeks after treatment vs untreated controls
In short: as §2

STEME: Stellaria media [4] = test: Pre-emergence herbicide efficacy at 1280 g/ha, STEME; conditions: visual scoring vs untreated controls
In short: (§3)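 Efficacy is a visual percentage rating against untreated controls, taken about 3 weeks after soil-surface application to freshly sown, soil-covered seeds in sandy loam.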

[5] = system: DIGSA: Digitaria sanguinalis; test: Pre-emergence herbicide efficacy at 80 g/ha, DIGSA; conditions: scored visually after about 3 weeks
In short: (§4)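 Applied to the soil surface directly after sowing, before emergence, as an aqueous WP or EC preparation containing 0.5% additive. Percent efficacy was rated by eye about 3 weeks later in the greenhouse.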

VIOTR: Viola tricolor = test: Post-emergence herbicidal efficacy at 80 g/ha, VIOTR; conditions: visual rating about 3 weeks after treatment vs untreated controls
In short: as §1

KCHSC: Kochia scoparia [6] = test: Pre-emergence herbicide efficacy at 1280 g/ha, KCHSC; conditions: visual scoring after about 3 weeks vs untreated controls
In short: as §3

VERPE: Veronica persica [7] = test: Pre-emergence herbicide efficacy at 80 g/ha, VERPE; conditions: scored visually after about 3 weeks
In short: as §4

SETVI: Setaria viridis [8] = test: Pre-emergence herbicide efficacy at 1280 g/ha, SETVI; conditions: visual scoring vs untreated controls
In short: as §3

[9] = system: ABUTH: Abutilon theophrasti; test: Pre-emergence herbicide efficacy at 1280 g/ha, ABUTH; conditions: visual scoring after about 3 weeks vs untreated controls
In short: as §3

[10] = system: MATIN: Matricaria inodora; test: Pre-emergence herbicide efficacy at 1280 g/ha, MATIN; conditions: visual scoring after about 3 weeks vs untreated controls
In short: as §3

[11] = system: DIGSA: Digitaria sanguinalis; test: Post-emergence herbicidal efficacy at 1280 g/ha, DIGSA; conditions: rated visually after about 3 weeks vs untreated controls, 100% = plants have died, 0% = like control plants
In short: as §2

[12] = system: ECHCG: Echinochloa crus-galli; test: Post-emergence herbicidal efficacy at 1280 g/ha, ECHCG; conditions: rated visually after about 3 weeks vs untreated controls, 100% = plants have died, 0% = like control plants
In short: as §2

VERPE: Veronica persica [13] = test: Pre-emergence herbicide efficacy at 1280 g/ha, VERPE; conditions: visual scoring vs untreated controls
In short: as §3

POLCO = test: Pre-emergence herbicide efficacy at 80 g/ha, POLCO; conditions: Polygonum convolvulus, scored visually after about 3 weeks
In short: as §4

[14] = system: AMARE: Amaranthus retroflexus; test: Pre-emergence herbicide efficacy at 1280 g/ha, AMARE; conditions: visual scoring after about 3 weeks vs untreated controls
In short: as §3

[15] = system: ABUTH: Abutilon theophrasti; test: Post-emergence herbicidal efficacy at 1280 g/ha, ABUTH; conditions: rated visually after about 3 weeks vs untreated controls, 100% = plants have died, 0% = like control plants
In short: as §2

LOLRI: Lolium rigidum = test: Pre-emergence herbicide efficacy at 1280 g/ha, LOLRI; conditions: visual scoring after about 3 weeks vs untreated controls
Source text: Seeds of mono- and dicotyledonous weed plants were placed in plastic pots in sandy loam soil (doubly sown with one species each of mono- or dicotyledonous weed plants per pot) and covered with soil. The compounds of the invention, formulated in the form of wettable powders (WP) or as emulsion concentrates (EC), were then applied to the surface of the covering soil as aqueous suspension or emulsion with addition of 0.5% additive at a water application rate of 600 litres per hectare (converted). After the treatment, the pots were placed in a greenhouse and kept under good growth conditions for the test plants. After about 3 weeks, the efficacy of the preparations was scored visually in comparison with untreated controls as percentages. For example, 100% activity=the plants have died, 0% activity=like control plants. Tables C1 to C12 below show the effects of selected compounds of the general formula (I) according to Table 1 on various harmful plants and at an application rate corresponding to 1280 g/ha, which were obtained by the trial procedure specified above.

VERPE: Veronica persica [16] = test: Post-emergence herbicidal efficacy at 80 g/ha, VERPE; conditions: visual rating about 3 weeks after treatment vs untreated controls
In short: as §1

[17] = system: ECHCG: Echinochloa crus-galli; test: Pre-emergence herbicide efficacy at 80 g/ha, ECHCG; conditions: scored visually after about 3 weeks
Source text: Seeds of monocotyledonous and dicotyledonous weed plants and crop plants were placed in plastic or organic planting pots and covered with soil. The compounds of the invention, formulated in the form of wettable powders (WP) or as emulsion concentrates (EC), were then applied to the surface of the covering soil as aqueous suspension or emulsion with addition of 0.5% additive at a water application rate equivalent to 600 l/ha. After the treatment, the pots were placed in a greenhouse and kept under good growth conditions for the test plants. After about 3 weeks, the efficacy of the preparations was scored visually in comparison with untreated controls as percentages. For example, 100% activity=the plants have died, 0% activity=like control plants. Tables D1 to D12 below show the effects of selected compounds of the general formula (I) according to Table 1 on various harmful plants and an application rate corresponding to 80 g/ha, which were obtained by the experimental procedure mentioned above.

[18] = system: MATIN: Matricaria inodora; test: Pre-emergence herbicide efficacy at 80 g/ha, MATIN; conditions: scored visually after about 3 weeks
In short: as §4

[19] = system: ECHCG: Echinochloa crus-galli; test: Pre-emergence herbicide efficacy at 1280 g/ha, ECHCG; conditions: visual scoring after about 3 weeks vs untreated controls
In short: as §3

SETVI: Setaria viridis [20] = test: Pre-emergence herbicide efficacy at 80 g/ha, SETVI; conditions: scored visually after about 3 weeks
In short: as §4

KCHSC: Kochia scoparia [21] = test: Post-emergence herbicidal efficacy at 80 g/ha, KCHSC; conditions: visual rating about 3 weeks after treatment vs untreated controls
Method: Seeds of monocotyledonous and dicotyledonous weeds and crop plants were placed in sandy loam in plastic or organic planting pots, covered with soil and cultivated in a greenhouse under controlled growth conditions. 2 to 3 weeks after sowing, the test plants were treated at the one-leaf stage. The compounds of the invention, formulated in the form of wettable powders (WP) or as emulsion concentrates (EC), were then sprayed onto the green parts of the plants as aqueous suspension or emulsion with addition of 0.5% additive at a water application rate of 600 l/ha (converted). After the test plants had been kept in the greenhouse under optimum growth conditions for about 3 weeks, the activity of the preparations was rated visually in comparison to untreated controls. For example, 100% activity=the plants have died, 0% activity=like control plants. Tables B1 to B10 below show the effects of selected compounds of the general formula (I) according to Table 1 on various harmful plants and an application rate corresponding to 80 g/ha, which were obtained by the experimental procedure mentioned above.

Fc1cnc(Oc2cccc(Br)c2Cc2ncc(Cl)cn2)nc1 [Example 1-54]
80%: Pre-emergence efficacy against POLCO in % (POLCO)
100%: Post-emergence efficacy against AMARE [1] | Post-emergence efficacy against STEME (STEME: Stellaria media [2]) | Post-emergence efficacy against VERPE (VERPE: Veronica persica [3]) | Pre-emergence efficacy against STEME in % (STEME: Stellaria media [4]) | Pre-emergence efficacy against DIGSA in % [5] | Post-emergence efficacy against VIOTR (VIOTR: Viola tricolor) | Pre-emergence efficacy against KCHSC (KCHSC: Kochia scoparia [6]) | Pre-emergence efficacy against SETVI in % (SETVI: Setaria viridis [8]) | Pre-emergence efficacy against ABUTH [9] | Pre-emergence efficacy against MATIN [10] | Post-emergence efficacy at 1280 g/ha against ECHCG in % [12] | Pre-emergence efficacy against VERPE in % (VERPE: Veronica persica [13]) | Pre-emergence efficacy against AMARE [14] | Post-emergence efficacy at 1280 g/ha against ABUTH in % [15] | Pre-emergence efficacy against LOLRI (LOLRI: Lolium rigidum) | Post-emergence efficacy against VERPE (VERPE: Veronica persica [16]) | Pre-emergence efficacy against ECHCG in % [17] | Pre-emergence efficacy against ECHCG [19] | Pre-emergence efficacy against SETVI in % (SETVI: Setaria viridis [20])
90%: Pre-emergence efficacy against VERPE in % (VERPE: Veronica persica [7]) | Post-emergence efficacy at 1280 g/ha against DIGSA in % [11] | Pre-emergence efficacy against MATIN in % [18]

Clc1cnc(Cc2c(Cl)cccc2Oc2ncc(Cl)cn2)nc1 [Example 1-56]
90%: Post-emergence efficacy against STEME (STEME: Stellaria media [2]) | Post-emergence efficacy against VERPE (VERPE: Veronica persica [3]) | Pre-emergence efficacy against VERPE in % (VERPE: Veronica persica [7]) | Post-emergence efficacy at 1280 g/ha against DIGSA in % [11] | Post-emergence efficacy at 1280 g/ha against ECHCG in % [12] | Pre-emergence efficacy against POLCO in % (POLCO) | Post-emergence efficacy at 1280 g/ha against ABUTH in % [15]
80%: Post-emergence efficacy against KCHSC (KCHSC: Kochia scoparia [21]) | Pre-emergence efficacy against ECHCG in % [17]
100%: Post-emergence efficacy against AMARE [1] | Pre-emergence efficacy against STEME in % (STEME: Stellaria media [4]) | Pre-emergence efficacy against DIGSA in % [5] | Post-emergence efficacy against VIOTR (VIOTR: Viola tricolor) | Pre-emergence efficacy against KCHSC (KCHSC: Kochia scoparia [6]) | Pre-emergence efficacy against SETVI in % (SETVI: Setaria viridis [8]) | Pre-emergence efficacy against ABUTH [9] | Pre-emergence efficacy against MATIN [10] | Pre-emergence efficacy against VERPE in % (VERPE: Veronica persica [13]) | Pre-emergence efficacy against AMARE [14] | Pre-emergence efficacy against LOLRI (LOLRI: Lolium rigidum) | Post-emergence efficacy against VERPE (VERPE: Veronica persica [16]) | Pre-emergence efficacy against MATIN in % [18] | Pre-emergence efficacy against ECHCG [19] | Pre-emergence efficacy against SETVI in % (SETVI: Setaria viridis [20])

FC(F)c1cc(-c2ccccc2Cc2ncc(Cl)cn2)on1 [Example 1-133]
90%: Pre-emergence efficacy against VERPE in % (VERPE: Veronica persica [7]) | Pre-emergence efficacy against LOLRI (LOLRI: Lolium rigidum)
80%: Pre-emergence efficacy against POLCO in % (POLCO) | Pre-emergence efficacy against ECHCG in % [17] | Pre-emergence efficacy against MATIN in % [18]
100%: Post-emergence efficacy against AMARE [1] | Post-emergence efficacy against STEME (STEME: Stellaria media [2]) | Post-emergence efficacy against VERPE (VERPE: Veronica persica [3]) | Pre-emergence efficacy against STEME in % (STEME: Stellaria media [4]) | Pre-emergence efficacy against DIGSA in % [5] | Post-emergence efficacy against KCHSC (KCHSC: Kochia scoparia [21]) | Post-emergence efficacy against VIOTR (VIOTR: Viola tricolor) | Pre-emergence efficacy against KCHSC (KCHSC: Kochia scoparia [6]) | Pre-emergence efficacy against SETVI in % (SETVI: Setaria viridis [8]) | Pre-emergence efficacy against ABUTH [9] | Pre-emergence efficacy against MATIN [10] | Post-emergence efficacy at 1280 g/ha against DIGSA in % [11] | Post-emergence efficacy at 1280 g/ha against ECHCG in % [12] | Pre-emergence efficacy against VERPE in % (VERPE: Veronica persica [13]) | Pre-emergence efficacy against AMARE [14] | Post-emergence efficacy at 1280 g/ha against ABUTH in % [15] | Post-emergence efficacy against VERPE (VERPE: Veronica persica [16]) | Pre-emergence efficacy against ECHCG [19] | Pre-emergence efficacy against SETVI in % (SETVI: Setaria viridis [20])

N#Cc1cccc(Oc2ncc(F)cn2)c1Cc1ncc(Cl)cn1 [Example 1-59]
100%: Post-emergence efficacy against AMARE [1] | Post-emergence efficacy against STEME (STEME: Stellaria media [2]) | Post-emergence efficacy against VERPE (VERPE: Veronica persica [3]) | Pre-emergence efficacy against STEME in % (STEME: Stellaria media [4]) | Pre-emergence efficacy against DIGSA in % [5] | Post-emergence efficacy against VIOTR (VIOTR: Viola tricolor) | Pre-emergence efficacy against KCHSC (KCHSC: Kochia scoparia [6]) | Pre-emergence efficacy against SETVI in % (SETVI: Setaria viridis [8]) | Pre-emergence efficacy against ABUTH [9] | Pre-emergence efficacy against MATIN [10] | Post-emergence efficacy at 1280 g/ha against DIGSA in % [11] | Pre-emergence efficacy against VERPE in % (VERPE: Veronica persica [13]) | Pre-emergence efficacy against AMARE [14] | Post-emergence efficacy at 1280 g/ha against ABUTH in % [15] | Pre-emergence efficacy against LOLRI (LOLRI: Lolium rigidum) | Pre-emergence efficacy against ECHCG in % [17] | Pre-emergence efficacy against MATIN in % [18] | Pre-emergence efficacy against ECHCG [19] | Pre-emergence efficacy against SETVI in % (SETVI: Setaria viridis [20])
90%: Post-emergence efficacy against KCHSC (KCHSC: Kochia scoparia [21]) | Pre-emergence efficacy against VERPE in % (VERPE: Veronica persica [7]) | Post-emergence efficacy at 1280 g/ha against ECHCG in % [12] | Pre-emergence efficacy against POLCO in % (POLCO) | Post-emergence efficacy against VERPE (VERPE: Veronica persica [16])

— patent US20250221410A1, “SUBSTITUTED 2-C-AZINES AND SALTS THEREOF, AND USE THEREOF AS HERBICIDAL ACTIVE SUBSTANCES” (BAYER AKTIENGESELLSCHAFT, priority 2022, published 2025)
